Assay: Evans Blue dye uptake into brain (BBB permeability) in mice given rTMS or sham
Format: in vivo, wild-type C57BL/6 mice
Source text: An in vivo mouse model was used to evaluate the use of rTMS to open the BBB. Ten wild-type C57BL/6 mice where anesthetized and received an intravenous (IV) injection of a 2% Evans Blue dye (in a vehicle of 0.9% NaCl). Evans Blue dye (also referred to as EBD or T-1824) is a non-toxic, azo-based injectable dye that presents visually with a dark blue/brown color. The dye has an affinity for serum albumin and is generally used to assess the permeability of the BBB in vivo. Most tissues will present darker, but neural tissue generally remains unstained. Mice injected with Evans Blue dye were then administered rTMS or a sham treatment and a histological analysis of the brain was performed to evaluate changes in permeability of the BBB. rTMS was administered according to Table 1.
The dye was administered as 100 μL 2% Evans blue (in 0.9% NaCl) via retro orbital injection. Mice were then administered rTMS or a sham (no magnetic field), e.g., as shown in the method overview depicted in FIGS. 2 and 3 for either 1 hr. or 30 min. Mice were euthanized, perfused with 10 mL PBS to expel blood from the organs, and analyzed for the presence of hemorrhage and lesion, e.g., as shown in the representative imaging in FIG. 3. Mice presented as lacking hemorrhage, lesion, or any signs of tissue damage.
Brains were then submerged in 20% sucrose for 2 hr. and embedded in optimal cutting temperature compound (OCT compound) and frozen. The brain was then sectioned at 16 μm thickness, rinsed with PBS, and mounted for scanning at 40× magnification. Section imaging was performed using a digital slide scanner.
An imaging software was used to evaluate the pixelate density and area of staining in brain sections for calculating a comparison of Evans Blue dye uptake into the brain tissue.

Mean area of brain section stained with Evans Blue, rTMS group (100 μL 2% Evans blue retro-orbital, then rTMS, 16 μm brain sections, n=4): 11.12 mm^2
Mean area of brain section stained with Evans Blue, sham group (100 μL 2% Evans blue retro-orbital, then sham (no magnetic field), 16 μm brain sections, n=4): 5.665 mm^2
Difference between means ± SEM of stained area (rTMS vs sham) (unpaired t-test, P 0.004, n=4 per group): 5.456 ± 1.209 mm^2
SMILES: Cc1cc(-c2ccc(/N=N/c3ccc4c(S(=O)(=O)O)cc(S(=O)(=O)O)c(N)c4c3O)c(C)c2)ccc1/N=N/c1ccc2c(S(=O)(=O)O)cc(S(=O)(=O)O)c(N)c2c1O [Evans Blue, Evans Blue dye]

Reference: patent US20260284422A1, “BRAIN TUMOR TREATMENT OR PREVENTION OF RECURRENCE WITH LOW INTENSITY AND VARIABLE FREQUENCY MAGNETIC STIMULATION” (ACTIPULSE NEUROSCIENCE INC., priority 2023, published 2026)
